Positions count from the first letter of the chain named.
Key:
Notum [1] = biological target: T1, Notum (Homo sapiens, UniProt Q6P988, C330S); assay: Notum OPTS activity assay (cell-free biochemical)
T1 construct: comprising amino acids S81–T451 with a C330S mutation; inferred from HisTrap purification and imidazole elution; made in house
T1 sequence (Q6P988 81-451 C330S): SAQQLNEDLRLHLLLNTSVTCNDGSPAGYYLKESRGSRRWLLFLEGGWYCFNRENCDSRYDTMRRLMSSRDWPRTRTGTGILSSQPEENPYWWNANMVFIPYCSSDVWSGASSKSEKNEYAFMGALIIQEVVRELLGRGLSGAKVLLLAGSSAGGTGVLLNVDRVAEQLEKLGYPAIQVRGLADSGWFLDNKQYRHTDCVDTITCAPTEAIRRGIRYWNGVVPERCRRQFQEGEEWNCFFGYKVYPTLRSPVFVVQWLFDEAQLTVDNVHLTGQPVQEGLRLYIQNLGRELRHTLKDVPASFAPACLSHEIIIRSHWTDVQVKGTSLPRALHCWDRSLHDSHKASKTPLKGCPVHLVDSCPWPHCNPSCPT
Excerpt: Notum is a druggable target for Wnt signaling modulation.[23] We have previously determined a number of structures of Notum inhibitor complexes.[21],[22],[24],[25],[27],[28] All of these inhibitors bind noncovalently at the Notum enzyme catalytic pocket, where the natural substrate PAM binds. For searching covalent inhibitors, we used this noncovalent inhibitor binding information to limit compound docking into the enzyme active site. A virtual library of approximately 1.5 million compounds (ChemDiv) was filtered to generate 534,804 candidates for docking with a Notum structure (PDB code 6T2K) by Schrödinger Glide SP[37],[38] (Experimental Section). Resulting 1330 compounds with score −9 or better were subject to manual inspection and availability check. Finally, 952 compounds were purchased and experimentally screened using a cell-free trisodium 8-octanoyloxypyrene-1,3,6-trisulfonate (OPTS) biochemical assay.[22] […] The soaked crystals were harvested, and diffraction data were collected at the Diamond Light Source. The structures were determined by molecular replacement and refined with Refmac to screen for difference map peaks (Experimental Section). Chemical structures were then fitted into the difference maps with the aim of identifying covalent binders. Methyl 4-indolinyl-4-oxobutanoate (1) was identified as the only covalent binder to emerge from the screen (Figure 1). The 1 soaked crystal diffracted to 1.2 Å resolution with a P2_12_12_1 space group containing one enzyme-inhibitor complex in an asymmetric unit (for data collection and refinement statistics, see Supporting Information, Table S1). The overall structure maintained the characteristic apo Notum fold (Figure 1A), with a α/β hydrolase core domain (β1-8 strands and αB, C, and F helices) and a moveable lid domain (αA, D, and E helices). 1 is composed of an indole ring linked to an oxo-butyric acid methyl ester (Figure 1B). The methyl ester-hydrolyzed 1 (with PDB identifier RW8) is an excellent fit in the strong electron density that extends from the nucleophile residue S232 (Figure 1C). The electron density for the RW8 is of equally high quality to that of the surrounding Notum amino acids. […] The movable lid domain sits between the “open” (PDB code 4UYU) and “closed” (PDB code 4UZ1) conformations with obvious movements of the flexible β6_αD loop (Figure 1D). When superimposed with the natural substrate, PAM-bound, structure (PDB code 4UZQ), the RW8 overlaps with the PAM within the enzyme pocket (Figure 1E). The indole ring is located toward the bottom of the pocket, while the butyric acid head group is well-aligned with the PAM head (Figure 1E). Residues that form the base of the pocket (P287–I291) are positioned closer to the RW8 indole ring than in the PAM-bound structure. For example, P287 Cα has moved 1.7 Å toward the pocket center (Figure 1E) to optimize interactions with the RW8 indole ring, which extends less far into the pocket than PAM.
The Notum inhibitory potencies of these compounds were assessed by determining OPTS IC50 values, which can be used to compare the relative activities of covalent inhibitors under carefully regulated conditions.[43] […] When a phenyl ring is added to produce benzyl ester, 5, the IC50 is also slightly better than 1.
The OPTS activity assay has been described in previous reports.[24],[25] Briefly, the test compounds, the reporter substrate OPTS (Sigma), and the recombinant Notum protein were dispensed into 384-well plates (Greiner) using a Labcyte Echo 550 acoustic liquid handler and incubated 40 min in room temperature. The endpoint fluorescence was measured on a PheraSTAR FSX microplate reader with an excitation wavelength of 485 nm and an emission wavelength of 520 nm. The compound IC50 values were calculated from curves using a 4PL fit.

Notum [2] = biological target: T1, Notum; assay: Cell-based TCF/LEF reporter (luciferase) assay, HEK293 STF cells with exogenous Wnt3a and Notum; details: HEK293 TCF/LEF luciferase reporter cell line
Description: Selected compounds were further investigated for inhibition of Notum activity in a Wnt/β-catenin signaling pathway TCF/LEF reporter (luciferase) HEK293 cell line with exogenous Wnt3a and Notum.[22],[25]
The cellular Wnt signaling functional assay has been described in previous reports.[24],[25] Briefly, the reporter cell plate containing stable HEK293 STF cells[53] (1 × 10^4 cells per well in 384-well microplates) carrying the Super Top Flash firefly luciferase reporter was prepared (overnight at 37 °C). Compounds and Notum protein were mixed for 10 min before the recombinant Wnt-3A was added and incubated for 1 h at room temperature. Then, the mixture from the compound plates was added to reporter cell plates and incubation overnight at 37 °C. For luciferase assay, steady-glo luciferase assay buffer (20 μL, Promega) was applied to the cell plates using the CyBio, the luminescence was measured on a PHERAstar FSXmicroplate reader with an excitation wavelength of 458 nm and an emission wavelength of 520 nm.

Notum (glycosylated) = biological target: T2, Notum (glycosylated) (Homo sapiens, UniProt Q6P988, C330S); assay: Thermal shift assay (differential scanning fluorimetry); type: binding; details: for ΔTm at 1000 µM: compound 1 mM, read-out: max ΔTm; for ΔTm: compound ∼30 μM (31 μM in Figure 3)
T2 construct: comprising amino acids S81–T451 with a C330S mutation; inferred from HisTrap purification and imidazole elution; made in house
T2 sequence (Q6P988 81-451 C330S): T1 sequence (Q6P988 81-451 C330S)
Description: To further characterize Notum 1 binding, especially regarding the importance of the methyl ester warhead of 1, we used a thermal shift assay (also known as differential scanning fluorimetry) to compare the binding properties of 1 with its methyl-less acid form, 4-indolinyl-4-oxobutanoic acid (2). The thermal shift assay is a reliable label-free strategy to detect small molecule–protein binding by measuring protein melting temperature (Tm) changes.[39]−[41] A ΔTm of 2 °C or more indicates a small molecule binding to the target protein.[42] Notum was incubated with each compound in the presence of a fluorescent indicator, […], and the melting curves were recorded. 1 and 2, despite only differing by a single methyl group, yield highly different Notum melting curves (Figure 3). […] To establish the dose-dependent thermal shift responses, we performed a twofold serial dilution of the compounds.
Thermal shift assays were carried out in a semiskirted 96-well PCR plate (4-Titude). Each well contains 3 μg of glycosylated Notum protein, 3× SYPRO Orange dye (Thermo Fisher Scientific), and compounds at various concentrations and adjusted to a final volume of 50 μL with assay buffer (10 mM Hepes, pH7.4, 150 mM NaCl, and 2% DMSO). The samples were heated in an Mx3005p qPCR machine (Stratagene, Agilent Technologies) from room temperature at a rate of 1 °C/min for 74 cycles. Fluorescence changes were monitored with excitation and emission wavelengths at 492 and 610 nm, respectively.

Notum S232A mutant = biological target: T3, Notum S232A mutant (Homo sapiens, UniProt Q6P988, C330S/S232A); assay: ESI-QTOF intact protein mass spectrometry detection of covalent binding, mutant control; details: 10 mM Hepes pH 7.4, 150 mM NaCl, room temperature, 1 h
T3 construct: comprising amino acids S81–T451 with a C330S mutation; inferred from HisTrap purification and imidazole elution; made in house
T3 sequence (Q6P988 81-451 S232A/C330S): T1 sequence (Q6P988 81-451 C330S) with S152A
Description: (§1) However, the crystals were grown and soaked under low pH (pH 4.2) and high salt (1.5 M ammonium sulphate) conditions. To measure covalent bonding and stability under near physiological conditions, we incubated Notum (deglycosylated) protein with 1 in buffer containing 10 mM Hepes, pH 7.4, 150 mM NaCl at room temperature for 1 h. The mixture was then subjected to ultrahigh-performance liquid chromatography (uHPLC) reversed-phase chromatography separation, followed by electrospray ionization quadrupole time-of-flight (ESI-QTOF) mass spectrometry analysis. […] There are some other minor peaks that may reflect incomplete removal of glycans. […] The calculated MW of 1 is 233.27 Da, while its methyl ester-hydrolyzed form (RW8) is 201.22 Da. […] To establish whether the covalent link is dependent on the nucleophile serine residue, we further used the Notum S232A mutant as a control, observing a mass of 44103.32 Da (Figure 2C). The decrease of 15.79 Da compared to the wild type is consistent with the expected serine to alanine mutation.
(§2) Reversed-phase chromatography was performed in-line prior to mass spectrometry using an Agilent 1290 uHPLC system (Agilent Technologies inc. USA). […] Protein intact mass was determined using a 6530 ESI-QTOF mass spectrometer (Agilent Technologies Inc. USA). […]

Notum (deglycosylated) = biological target: T4, Notum (deglycosylated) (Homo sapiens, UniProt Q6P988, C330S); assay: ESI-QTOF intact protein mass spectrometry detection of covalent binding; details: 10 mM Hepes pH 7.4, 150 mM NaCl, room temperature, 1 h
T4 construct: comprising amino acids S81–T451 with a C330S mutation; inferred from HisTrap purification and imidazole elution; made in house
T4 sequence (Q6P988 81-451 C330S): T1 sequence (Q6P988 81-451 C330S)
Description: as §1, §2

[3] = mean ± s.d. (n = 4), 40 min incubation at room temperature

Question: How did the IC50 (Notum [1]; [3]) turn out when `O=C(CCC(=O)N1CCc2ccccc21)OCc1ccccc1` [Compound 5] was run?
Answer: The IC50 was 64 ± 14 nM.

Question: What does the source list for `CCOC(=O)CCC(=O)N1CCc2ccccc21` [Compound 3]?
Answer: IC50 (Notum [1]; [3]): 190 ± 45 nM; EC50 (Notum [2]): 300 ± 60 nM

Question: What does the source list for `O=C(O)CCC(=O)N1CCc2ccccc21` [Compound 2, 4-indolinyl-4-oxobutanoic acid]?
Answer: ΔTm at 1000 µM (Notum (glycosylated)): 2.5 °C; ΔTm (Notum (glycosylated)): 1 °C; IC50 (Notum [1]; [3]): 3100 ± 920 nM

Question: Which IC50 (Notum [1]; [3]) does the source give for `O=C(CCC(=O)N1CCc2ccccc21)OCC(F)F` [Compound 4] here?
Answer: Its IC50 is 12 ± 2.8 nM.

Question: With `CC(C)OC(=O)CCC(=O)N1CCc2ccccc21` [Compound 6] as the molecule, how does the IC50 (Notum [1]; [3]) read?
Answer: The IC50 was 4300 ± 400 nM.

Question: What does the source list for `COC(=O)CCC(=O)N1CCc2ccccc21` [Compound 1, Methyl 4-indolinyl-4-oxobutanoate]?
Answer: ΔTm at 8 µM (Notum (glycosylated); compound 8 μM, start of significant changes): 2 °C; ΔTm at 1000 µM (Notum (glycosylated)): 10 °C; ΔTm (Notum (glycosylated)): 5 °C; mass change of treated Notum S232A mutant (Notum S232A mutant): no mass change; IC50 (Notum [1]; [3]): 93 ± 20 nM; mass increase of treated Notum compared to untreated Notum (Notum (deglycosylated)): 201.25 Da; EC50 (Notum [2]): 530 ± 47 nM

Question: For `CC(C)(C)OC(=O)CCC(=O)N1CCc2ccccc21` [Compound 7], which inhibition at 10 µM (Notum [1]; @ 10 μM, read-out: Notum OPTS % inhibition (% I)) is on record?
Answer: Its inhibition at 10 µM is less than 10%.

Question: What about the “Notum OPTS IC50” value (Notum [1]; [3]) of the same molecule?
Answer: Its value is “inactive ^b”.
